Measured values as given in patent US20230357162A1, “COMPOUNDS, COMPOSITIONS AND METHODS” (Denali Therapeutics Inc., priority 2020, published 2023).

System: IL-1β secretion, THP-1 cells
Experiment: IL-1β secretion assay in PMA-differentiated THP-1 cells stimulated with LPS and nigericin (ELISA readout)
Format: cell-based
Conditions: Homo sapiens, THP-1, inhibition of IL-1β secretion, 25 ng/mL LPS then nigericin
Protocol: Compounds as provided herein were tested in the following assay. Cell culture medium employed contained RPMI 1640 medium (89%), FBS (10%), Pen/Strep (1%), and 2-mercaptoethanol (0.05 mM). Freezing medium was made up of 90% FBS and 10% DMSO. THP-1 cells were removed from the liquid nitrogen and placed into a 37° C. water bath to thaw, until signs of ice dissipated. The cells were then added to 9 mL of warm cell culture medium and centrifuged for 5 minutes at 1000 rpm. The supernatant was discarded, and the cells were resuspended in new cell culture medium. THP-1 cells were then split and cultured in the cell culture medium, being passaged every 2-3 days with the cell density will be maintained between 5×10^5 and 1.5×10^6 viable cells/mL.
PMA was dissolved in DMSO to make a stock solution at 5 mg/ml and stored in 10 µl aliquots at -20° C. for single use. PMA is added to normal growth medium. LPS was diluted with 1 mL of water solution to provide a 1 mg/mL stock solution and stored in 15 µl aliquots at -20° C. for single use. Nigericin is diluted in ice cold 100% ethanol to 5 mg/ml (6.7 mM) and stored in 75 µL aliquots at -20° C. for single use. Serum-free media contains RPMI 1640 medium (99%), Pen/Strep (1%), and 2-mercaptoethanol (0.05 mM). The two control conditions used to qualify and normalize test compound dose-response curves were as follows: High Control = 25 ng/mL LPS, 5 µM Nigericin, 0.5% DMSO, Low Control = 25 ng/mL, LPS, 0.5% DMSO.
THP-1 cells were diluted to provide a suspension at a concentration of 1.0×10^6 cells/mL with the total volume of suspension required to enable the desired number of assay plates. The growth media was supplemented with PMA (5 ng/mL final concentration) and the cells were incubated at 37° C. under a humidified atmosphere of 5% CO2 for 40 h.
All media was carefully aspirated from each culture flask. The cells were washed carefully with 1x DPBS. The cells were then briefly digested with trypsin LE for 5 minutes at 23° C. and immediately resuspended in cell growth media. After resuspension, the cells were centrifuged at 1000 rpm for 3 minutes and the supernatant was discarded. The cells were resuspended in DPBS and once again centrifuged at 1000 rpm for 5 minutes. The supernatant was discarded and the cell pellet was resuspended in serum-free media supplemented with LPS (25 ng/mL final concentration) to enable the distribution of 30 K THP-1 cells within 45 µL of media into each well of 384-well PDL-coated plates. The 384-well plates were then incubated at 37° C. under a humidified atmosphere of 5% CO2 for 2 h. Following this period, test compounds were dispensed by Tecan across the desired concentration range with all wells normalized to a final 0.5 % DMSO concentration. The plates were then then incubated at 37° C. under a humidified atmosphere of 5% CO2 for 1 h. Following this period, 5 µL of the […] nigericin stock solution was added to each of the appropriate wells and plates were centrifuged at 1000 rpm for 30 seconds. The plates were the immediately reintroduced to the incubator at 37° C. under a humidified atmosphere of 5% CO2 for 2 h. After this time, 35 µL/well of supernatant was collected and transferred into v-bottom plate and centrifuged at 1000 rpm for 1 minute. These supernatant aliquots were analyzed using an IL-Iβ detection kit as described below. If needed, the test samples could be snap frozen and stored at -80° C. until analyzed.
To prepare each ELISA plate, capture antibody (mAb Mt175) was diluted with PBS to a final concentration of 2 µg/mL and then 20 µL of this solution was added to each well of the ELISA plate. Each plate was allowed to incubate overnight at 4° C. The next day, the capture antibody solution was removed and discarded. Each ELISA plate was washed 4 times with PBST followed by the addition of 25 µL/well of blocking buffer (Licor-927-40010) supplemented with 0.1% Tween 20. Each ELISA plate was then allowed to incubate for 1 hour at 23° C. […]

Row | Structure (SMILES) | IC50 (class column of Table 3) [nM] | IC50 (numeric column of Table 3) [nM]
1 | O=C(Cn1nc(OC2CN(CC(F)(F)F)C2)c2cc(Br)ccc2c1=O)Nc1ncc(F)cn1 [Example 170, 2-[6-bromo-1-oxo-4-[1-(2,2,2-trifluoroethyl)azetidin-3-yl]oxyphthalazin-2-yl]-N-(5-fluoropyrimidin-2-yl)acetamide] | < 10000 | 493
2 | CC(C)c1nn(CC(=O)Nc2ccn(C)n2)c(=O)c2ccc(Br)cc12 [Example 69, 2-(6-bromo-1-oxo-4-propan-2-ylphthalazin-2-yl)-N-(1-methylpyrazol-3-yl)acetamide] | < 10000 | 1710
3 | CC(C)c1nn(CC(=O)Nc2nc(F)ccc2F)c(=O)c2ccc(Br)cc12 [Example 40, 2-(6-bromo-1-oxo-4-propan-2-ylphthalazin-2-yl)-N-(3,6-difluoropyridin-2-yl)acetamide] | < 10000 | 1060
4 | O=C(Cn1nc(OC(F)(F)F)c2cc(Br)ccc2c1=O)Nc1ncncc1F [Example 82] | < 10000 | 1480
5 | O=C(Cn1nc(C(F)(F)F)c2ccc(Br)cc2c1=O)Nc1ncncc1F [Example 132, 2-[7-bromo-1-oxo-4-(trifluoromethyl)phthalazin-2-yl]-N-(5-fluoropyrimidin-4-yl)acetamide] | > 15000 | > 50000
6 | CC(C)c1nn(CC(=O)Nc2ccc(Cl)nc2)c(=O)c2ccc(Br)cc12 [Example 30, 2-(6-bromo-1-oxo-4-propan-2-ylphthalazin-2-yl)-N-(6-chloropyridin-3-yl)acetamide] | < 10000 | 519
7 | CC(C)c1nn(CC(=O)Nc2ncncc2F)c(=O)c2ccc(Br)nc12 [Example 22, 2-(2-bromo-5-oxo-8-propan-2-ylpyrido[2,3-d]pyridazin-6-yl)-N-(5-fluoropyrimidin-4-yl)acetamide] | < 10000 | 398
8 | CC(C)c1nn(CC(=O)Nc2ccncc2F)c(=O)c2ccc(Br)cc12 [Example 8, 2-(6-Bromo-4-isopropyl-1-oxophthalazin-2(1H)-yl)-N-(3-fluoropyridin-4-yl)acetamide] | < 10000 | 235
9 | O=C(Cn1nc(C2CC2)c2cc(Br)ccc2c1=O)Nc1ncc(F)cn1 [Example 164, 2-(6-bromo-4-cyclopropyl-1-oxophthalazin-2-yl)-N-(5-fluoropyrimidin-2-yl)acetamide] | < 10000 | 149
10 | CC(C)c1nn(CC(=O)NC2CCC(=O)N(C)C2)c(=O)c2ccc(Br)cc12 (centres unmarked) [Example 66, 2-(6-bromo-1-oxo-4-propan-2-ylphthalazin-2-yl)-N-(1-methyl-6-oxopiperidin-3-yl)acetamide] | < 10000 | 2440
11 | Cc1cnc(NC(=O)Cn2nc(C(C)C)c3cc(Br)ccc3c2=O)c(F)c1 [Example 124, 2-(6-bromo-1-oxo-4-propan-2-ylphthalazin-2-yl)-N-(3-fluoro-5-methylpyridin-2-yl)acetamide] | < 10000 | 1030
12 | CC(C)c1nn(CC(=O)N[C@H]2C[C@@](C)(O)C2)c(=O)c2ccc(Br)cc12 [Example 1, 2-(6-Bromo-4-isopropyl-1-oxophthalazin-2(1H)-yl)-N-(cis-3-hydroxy-3-methylcyclobutyl)acetamide] | < 10000 | 30
13 | CC(F)COc1nn(CC(=O)Nc2ncc(F)cn2)c(=O)c2ccc(Br)cc12 (centres unmarked) [Example 162] | < 10000 | 455
14 | CC(C)c1nn(CC(=O)Nc2ccnc(C3CC3)n2)c(=O)c2ccc(Br)cc12 [Example 51, 2-(6-bromo-1-oxo-4-propan-2-ylphthalazin-2-yl)-N-(2-cyclopropylpyrimidin-4-yl)acetamide] | < 10000 | 863
15 | Cc1cnc(NC(=O)Cn2nc(OC3CC3)c3cc(Br)ccc3c2=O)nc1 [Example 152] | < 10000 | 173
16 | O=C(Cn1nc(C(F)F)c2c(F)c(Br)ccc2c1=O)Nc1ncc(Cl)cn1 [Example 182] | < 10000 | 68
